Molecules are shown by their SMILES.

What all share (assay): CD titration, Hyperquad 2003 fit
The subject of assay [1] is c-kitG20T (DNA, G4) AGGGAGGGCGCTGGGAGGATGG
The settings on record: K+ (17 mM K2HPO4/KH2PO4); pH 7.40, 5% DMSO, 20 °C; site 1 of 2, stepwise 1:1; second G4 1.1 × 10^5 M^-1.

The subject of assay [2] is c-mycTGA-de (DNA, G4) GGGTGGGGAGGGTGGGGAA
To be noted: K+ (17 mM K2HPO4/KH2PO4); pH 7.40, 5% DMSO, 20 °C; site 1 of 2, stepwise 1:1; second G4 2.8 × 10^2 M^-1.

In assay [3] the test system is c-myc1245 (DNA, G4) TGAGGGTGGGTTTTTAGGGTGGGGAA
The settings on record: K+ (17 mM K2HPO4/KH2PO4); pH 7.40, 5% DMSO, 20 °C; conflict: Figure S38 legend prints (5.1 ± 0.2) × 10^4.

In the case of `Cn1c2cccc(n2)n(C)c2cccc(n2)n(C)c2cccc(n2)n(C)c2cccc(n2)n(C)c2cccc(n2)n(C)c2cccc1n2`, the Ka1 result in assay [1] was “(9.4 ± 0.4) × 10^4 M^-1”. Moreover, the Ka entry in assay [2] is given as “(5.1 ± 0.2) × 10^4 M^-1”; in assay [3] it was “(1.3 ± 0.05) × 10^6 M^-1”.

The values above are taken from paper PMC4438431 (2015).
